Test results taken from patent US20120323016A1, “METHOD OF PREPARING DERIVATIVES/OLIGOMERS OF EPICATECHIN AND APPLICATIONS THEREOF” (NATIONAL UNIVERSITY OF SINGAPORE, priority 2009, published 2012).

Assay: Oxygen radical absorbance capacity (ORAC) assay
Method: Peroxyl radical scavenging capacity of the EC2S2 was determined using oxygen radical absorbance capacity (ORAC) assay (Huang, D.; Ou, B.; Hampsch-Woodill, M.; Flanagan, J. A.; Prior, R. L. High-throughput assay of oxygen radical absorbance capacity (ORAC) using a multichannel liquid handling system coupled with a microplate fluorescence reader in 96-well format. Journal of Agricultural and Food Chemistry (2002), 50(16), 4437-4444.). […] The net area under the curve has excellent linear relationship with the concentration of EC2S2. The ORAC value calculated from the individual concentration is 10.79±0.58 μmol TE/μmol sample. This is the highest ORAC value reported for pure antioxidant compounds.

Oc1cc(O)c2c(c1)O[C@H](c1ccc(O)c(O)c1)[C@H](O)[C@H]2SCCS[C@H]1c2c(O)cc(O)cc2O[C@H](c2ccc(O)c(O)c2)[C@@H]1O [EC2S2, (2R,2′R,3S,3′S,4S,4′S)-4,4′-(ethane-1,2-diylbis(sulfanediyl))bis(2-(3,4-dihydroxyphenyl)chroman-3,5,7-triol)]
antioxidant activity relative to EC (EC2S2 synthesized from Pine Bark OPCs, compared with EC): two times higher than EC | ORAC value (peroxyl radical scavenging capacity) (calculated from the individual concentration, Trolox standard): 10.79±0.58 μmol TE/μmol sample
